From patent publication US7381521B2, “Anti-pathogenic composition useful in blood preservation” (Altachem Pharma Ltd., priority 2001, dated 2008)
Where “and” joins values, the source holds several entries; their conditions need not be identical. Equal entries are not always repeated. Where two headings read alike, the source gives them in different places.

Key:
AgHBs = assay: In vitro degradation of the antigen of hepatitis B virus (AgHBs), virocide + human serum of a hepatitis B patient; type: biochemical; settings: Bardac 0.2%
Source text: Action on In Vitro Degradation of the Antigen of Hepatitis B Virus (AgHBs) of the Hepatitis B Virus: Virocide+Human Serum Taken from a Patient with Hepatitis B ( 1/1000th)

human fibroblastic cells = assay: Cytotoxicity check of the products on human fibroblastic cells; type: cell-based
Description: Cytotoxicity checks are conducted on the products for cellular cultures used in the tests, that is to say the human fibroblastic cells.
The cells are cultivated on a Dulbecco medium enriched with 10% fetal calf serum; at the moment of their use, the cells are washed and the same culture medium is used but without calf serum.
For each product tested or each composition, 10 tubes of cellular culture were used and after inoculation of the product, the tubes were kept under observation for 3 days.
Each product was, in succession, used pure and at dilutions of 10^−1, 10^−2, 10^−3 and added to culture tubes containing 1 ml of nutrient medium in a volume of 0.1 ml.

[1] = system: herpes virus Hominis type 1, strain Bey (HSV1); assay: Immediate virocidal action, zone-forming units on vero cells; type: cell-based; settings: day 4, three culture dishes
C. albicans ATCC 1031 = assay: Test 2 (DGHM), action as a function of disinfection time at 22° C., 8 × 10^7 organisms/ml; type: cell-based, Candida albicans
Description: Another test was carried out a basis of the following solutions • 100 ml of a 0.1% solution of chlorohexidine digluconate (pH 6); and • 100 ml of a 0.1% solution of Bardac22®.
The activity of these solutions, alone or in combination, was more particularly tested in respect of Staphylococcus aureus ATCC 6538, Escherichia coli ATCC 11229 and Candida albicans ATCC 10231.
The tests were conducted in accordance with the procedure described in Chapter I/2.1 and 2.2 of Tichtlinien für die Prüfung und Bewertung chemischer Desinfektionsverfahren der DGHM/Guidelines for Testing and Evaluating Chemical Disinfection Processes of DGHM as at 1.1, 1981.

spermatozoids = assay: Spermicidal action, vitality by eosine-nigrosine, 100 spermatozoids examined; type: cell-based, human (healthy volunteers); design: key: living (colourless) cells counted among 100 spermatozoids examined
Description: The various samples of sperm (one drop of sperm per sample) are obtained from healthy volunteers.
One drop of sperm is treated by eosine-nigrosine. A smear is then prepared and 100 spermatozoids examined with a microscope. The dead cells are coloured red, either totally or partially. The living cells are colourless.
The substances studied were Bardac® and chlorohexidine digluconate, tested alone and in association in accordance with the invention. The various stages of the procedure are set out in Tables XV to XVII.
The maximum contact time of the various substances and of the sperm was confined to 3 minutes in order to guarantee the effectiveness of the method under the conditions of use. The concentration of the active solutions in the sperm was limited to 10% in order to reduce the risks of toxicity of the products in respect of the mucosa.

[2] = system: erythrocytes in heparinized bovine blood; assay: In-vitro hemolysis of erythrocytes in heparinized whole blood, absorbance at 413 nm; settings: 1 hour at 37° C.
Description: The effect of the compounds on the in-vitro hemolysis of erythrocytes in heparinized whole blood is monitored by a spectrophotometric method.
Various formulations and concentrations of the test compound are added to heparinized bovine blood and mixed gently in a 1.5 ml microcentrifuge tube. The sample is allowed to incubate for 1 hour at 37° C. At the end of incubation, the samples are removed from the incubator and centrifuged at 2000 rpm for 5 minutes. A 200 μl aliquot of the supernatant is removed from each sample into a 96 well microtiter plate and read at 413 nm. The absorbance of the test sample is compared to the control sample containing phosphate buffered saline, pH 7.2.

CCCCCCCCCC[N+](C)(C)CCCCCCCCCC.[Cl-] [Bardac ®, didecyl dimethyl ammonium chloride]
Residual AgHBs (ratio) (AgHBs): 1.35
toxicity for the cell cultures (human fibroblastic cells; 0.04% solution at a dilution of 10^−3, 0.1 ml in 1 ml medium, 3 days): not toxic
Number of zone-forming units per milliliter of virus diluted to 10^−4 ([1]; Bardac 0.02%): 30/125/45
Number of zone-forming units per milliliter of virus diluted to 10^−4 ([1]; Bardac, concentration not given, second series (control virus at 10^−6)): 26/17/20
growth (C. albicans ATCC 1031; 0.05% vol/vol, 1 min): +
growth (C. albicans ATCC 1031; 0.05% vol/vol, 3 min): +
growth (C. albicans ATCC 1031; 0.05% vol/vol, 5 min): +
growth (C. albicans ATCC 1031; 0.05% vol/vol, 15 min): +
growth (C. albicans ATCC 1031; 0.05% vol/vol, 30 min): +
growth (C. albicans ATCC 1031; 0.05% vol/vol, 60 min): +
growth (C. albicans ATCC 1031; 0.1% vol/vol, 1 min): +
growth (C. albicans ATCC 1031; 0.1% vol/vol, 3 min): +
growth (C. albicans ATCC 1031; 0.1% vol/vol, 5 min): +
growth (C. albicans ATCC 1031; 0.1% vol/vol, 15 min): +
growth (C. albicans ATCC 1031; 0.1% vol/vol, 30 min): +
growth (C. albicans ATCC 1031; 0.1% vol/vol, 60 min): +
growth (C. albicans ATCC 1031; 0.5% vol/vol, 1 min): +
growth (C. albicans ATCC 1031; 0.5% vol/vol, 3 min): +
growth (C. albicans ATCC 1031; 0.5% vol/vol, 5 min): +
growth (C. albicans ATCC 1031; 0.5% vol/vol, 15 min): +
growth (C. albicans ATCC 1031; 0.5% vol/vol, 30 min): +
growth (C. albicans ATCC 1031; 0.5% vol/vol, 60 min): +
growth (C. albicans ATCC 1031; 1% vol/vol, 1 min): +
growth (C. albicans ATCC 1031; 1% vol/vol, 3 min): +
growth (C. albicans ATCC 1031; 1% vol/vol, 5 min): +
growth (C. albicans ATCC 1031; 1% vol/vol, 15 min): +
growth (C. albicans ATCC 1031; 1% vol/vol, 30 min): −
growth (C. albicans ATCC 1031; 1% vol/vol, 60 min): −
growth (C. albicans ATCC 1031; 5% vol/vol, 1 min): +
growth (C. albicans ATCC 1031; 5% vol/vol, 3 min): +
growth (C. albicans ATCC 1031; 5% vol/vol, 5 min): −
growth (C. albicans ATCC 1031; 5% vol/vol, 15 min): −
growth (C. albicans ATCC 1031; 5% vol/vol, 30 min): −
growth (C. albicans ATCC 1031; 5% vol/vol, 60 min): −
growth (C. albicans ATCC 1031; 10% vol/vol, 1 min): −
growth (C. albicans ATCC 1031; 10% vol/vol, 3 min): −
growth (C. albicans ATCC 1031; 10% vol/vol, 5 min): −
growth (C. albicans ATCC 1031; 10% vol/vol, 15 min): −
growth (C. albicans ATCC 1031; 10% vol/vol, 30 min): −
growth (C. albicans ATCC 1031; 10% vol/vol, 60 min): −
growth (C. albicans ATCC 1031; 25% vol/vol, 1 min): −
growth (C. albicans ATCC 1031; 25% vol/vol, 3 min): −
growth (C. albicans ATCC 1031; 25% vol/vol, 5 min): −
growth (C. albicans ATCC 1031; 25% vol/vol, 15 min): −
growth (C. albicans ATCC 1031; 25% vol/vol, 30 min): −
growth (C. albicans ATCC 1031; 25% vol/vol, 60 min): −
vitality (living spermatozoids) (spermatozoids; Bardac solution 0.4%, contact 1 min, 5% in the sperm): 10.7 ± 7.6
vitality (living spermatozoids) (spermatozoids; Bardac solution 0.4%, contact 1 min, 10% in the sperm): 5 ± 6.4
vitality (living spermatozoids) (spermatozoids; Bardac solution 0.4%, contact 3 min, 5% in the sperm): 0.8 ± 1.2
vitality (living spermatozoids) (spermatozoids; Bardac solution 0.4%, contact 3 min, 10% in the sperm): 0.8 ± 1
vitality (living spermatozoids) (spermatozoids; Bardac solution 0.6%, contact 1 min, 5% in the sperm): 10.5 ± 9.7
vitality (living spermatozoids) (spermatozoids; Bardac solution 0.6%, contact 1 min, 10% in the sperm): 9.2 ± 12.9
vitality (living spermatozoids) (spermatozoids; Bardac solution 0.6%, contact 3 min, 5% in the sperm): 2.2 ± 4.5
vitality (living spermatozoids) (spermatozoids; Bardac solution 0.6%, contact 3 min, 10% in the sperm): 0.4 ± 0.9
vitality (living spermatozoids) (spermatozoids; Bardac solution 0.8%, contact 1 min, 5% in the sperm): 9.7 ± 10.2
vitality (living spermatozoids) (spermatozoids; Bardac solution 0.8%, contact 1 min, 10% in the sperm): 1.8 ± 2.5
vitality (living spermatozoids) (spermatozoids; Bardac solution 0.8%, contact 3 min, 5% in the sperm): 0
vitality (living spermatozoids) (spermatozoids; Bardac solution 0.8%, contact 3 min, 10% in the sperm): 0
vitality (living spermatozoids) (spermatozoids; Bardac solution 1%, contact 1 min, 5% in the sperm): 0
vitality (living spermatozoids) (spermatozoids; Bardac solution 1%, contact 1 min, 10% in the sperm): 0
vitality (living spermatozoids) (spermatozoids; Bardac solution 1%, contact 3 min, 5% in the sperm): 0
vitality (living spermatozoids) (spermatozoids; Bardac solution 1%, contact 3 min, 10% in the sperm): 0
Concentration at which hemolysis is not observed [2]: 0.001% and 0.0125% and 0.0005%

[H]/N=C(\N/C(=N/[H])NCCCCCCNC(=N)NC(=N)Nc1ccc(Cl)cc1)Nc1ccc(Cl)cc1 [Chlorhexidine, chlorohexidine digluconate, reference compound]
toxicity for the cell cultures (human fibroblastic cells): no toxicity
growth (C. albicans ATCC 1031; 0.05% vol/vol, 1 min): +
growth (C. albicans ATCC 1031; 0.05% vol/vol, 3 min): +
growth (C. albicans ATCC 1031; 0.05% vol/vol, 5 min): +
growth (C. albicans ATCC 1031; 0.05% vol/vol, 15 min): +
growth (C. albicans ATCC 1031; 0.05% vol/vol, 30 min): +
growth (C. albicans ATCC 1031; 0.05% vol/vol, 60 min): +
growth (C. albicans ATCC 1031; 0.1% vol/vol, 1 min): +
growth (C. albicans ATCC 1031; 0.1% vol/vol, 3 min): +
growth (C. albicans ATCC 1031; 0.1% vol/vol, 5 min): +
growth (C. albicans ATCC 1031; 0.1% vol/vol, 15 min): +
growth (C. albicans ATCC 1031; 0.1% vol/vol, 30 min): +
growth (C. albicans ATCC 1031; 0.1% vol/vol, 60 min): +
growth (C. albicans ATCC 1031; 0.5% vol/vol, 1 min): +
growth (C. albicans ATCC 1031; 0.5% vol/vol, 3 min): +
growth (C. albicans ATCC 1031; 0.5% vol/vol, 5 min): +
growth (C. albicans ATCC 1031; 0.5% vol/vol, 15 min): +
growth (C. albicans ATCC 1031; 0.5% vol/vol, 30 min): +
growth (C. albicans ATCC 1031; 0.5% vol/vol, 60 min): +
growth (C. albicans ATCC 1031; 1% vol/vol, 1 min): +
growth (C. albicans ATCC 1031; 1% vol/vol, 3 min): +
growth (C. albicans ATCC 1031; 1% vol/vol, 5 min): +
growth (C. albicans ATCC 1031; 1% vol/vol, 15 min): +
growth (C. albicans ATCC 1031; 1% vol/vol, 30 min): +
growth (C. albicans ATCC 1031; 1% vol/vol, 60 min): −
growth (C. albicans ATCC 1031; 5% vol/vol, 1 min): +
growth (C. albicans ATCC 1031; 5% vol/vol, 3 min): +
growth (C. albicans ATCC 1031; 5% vol/vol, 5 min): +
growth (C. albicans ATCC 1031; 5% vol/vol, 15 min): +
growth (C. albicans ATCC 1031; 5% vol/vol, 30 min): −
growth (C. albicans ATCC 1031; 5% vol/vol, 60 min): −
growth (C. albicans ATCC 1031; 10% vol/vol, 1 min): +
growth (C. albicans ATCC 1031; 10% vol/vol, 3 min): +
growth (C. albicans ATCC 1031; 10% vol/vol, 5 min): +
growth (C. albicans ATCC 1031; 10% vol/vol, 15 min): +
growth (C. albicans ATCC 1031; 10% vol/vol, 30 min): −
growth (C. albicans ATCC 1031; 10% vol/vol, 60 min): −
growth (C. albicans ATCC 1031; 25% vol/vol, 1 min): +
growth (C. albicans ATCC 1031; 25% vol/vol, 3 min): +
growth (C. albicans ATCC 1031; 25% vol/vol, 5 min): +
growth (C. albicans ATCC 1031; 25% vol/vol, 15 min): −
growth (C. albicans ATCC 1031; 25% vol/vol, 30 min): −
growth (C. albicans ATCC 1031; 25% vol/vol, 60 min): −
vitality (living spermatozoids) (spermatozoids; Chlorohexidine digluconate solution 0.5%, contact 1 min, 5% in the sperm): 77 ± 10.8
vitality (living spermatozoids) (spermatozoids; Chlorohexidine digluconate solution 0.5%, contact 1 min, 10% in the sperm): 77.2 ± 5.6
vitality (living spermatozoids) (spermatozoids; Chlorohexidine digluconate solution 0.5%, contact 3 min, 5% in the sperm): 78 ± 5.7
vitality (living spermatozoids) (spermatozoids; Chlorohexidine digluconate solution 0.5%, contact 3 min, 10% in the sperm): 75.5 ± 4.8
Concentration at which hemolysis is not observed ([2]; component of test compound Bardac 22 + Chlorohexidine Gluconate + Tergitol NP-9): 0.001%
Concentration at which hemolysis is not observed ([2]; component of test compound Bardac 22 + Chlorohexidine Gluconate): 0.0125%
